Measured values taken from US4837228A, “Antiinflammatory and antimicrobial compounds and compositions” (The University of Mississippi, priority 1982, dated 1989).
≈ marks a conversion by molar mass, not a printed value. Entries after “also recorded” stand apart in the source; their conditions may differ. Read-outs that look alike come from different tables or passages of the source.

How the values were obtained:
[1] = test system: Trichophyton mentagrophytes; assay: agar well diffusion assay, T. mentagrophytes; assay type: cell-based; details: one entry across 48 hr and 72 hr
Method: (§1) Both qualitative and quantitative screens were performed. Qualitative screening was accomplished using the agar well diffusion assay technque while quantitative screening was accomplished by the two-fold (broth) serial dilution method to determine the minimum inhibitory concentration (MIC). Innoculation was accomplished with one loop-full of a 1:10 dilution of the 24-hour-old broth culture, (fungal cultures and M.smegmatis more often required 48 to 72 hours of incubation) of the test organisms in sterile water. Streptomycin sulfate was used as a positive control for antibacterial activity while amphitericin B was used as an antifungal positive control. Organisms utilized in the screens included gram-positive, gram-negative, and acid-fast bacteria as well as different types of fungi. […] An intermediate type activity is seen where R is hydrogen. However, where R is lengthened up to C15 a decrease in activity was noted. Total saturation of the two double bonds in the compounds having a methyl side chain lead, in most cases, to an increase in both antifungal and antibacterial activity.

Escherichia coli = assay: agar well diffusion assay, E. coli; assay type: cell-based; details: from edge of agar well
Method: as §1

Saccharomyces cerevisiae = assay: agar well diffusion assay, S. cerevisiae; assay type: cell-based; details: from edge of agar well
Method: as §1

[2] = deaths and adverse effects observed in the rat paw edema test; assay type: in vivo; details: 480 mg/kg i.p. plus ethyl urethane i.p.
Method: (§2) In the Rat Paw Edema Test, the rats utilized were divided into test groups of six to eight animals, weighed and marked so that individual rats could be identified; one hour before testing all rats were given a 700 mg/kg intraperitoneal injection of ethyl urethane in distilled water to render them tractable during testing. A circle was drawn, with a felt-tipped marker, around the hind leg of each rat just above the ankle, and each rat was dosed with a test or control compound by intraperitoneal injection. Negative control groups received the vehicle; while positive control groups received a dose of phenylbutazone (PBZ) as shown in Table II. Test compounds were given at doses of 60, 120, 240 and 480 mg/kg. The positive controls were given at 120 mg/kg and 60 mg/kg. Phenylbutazone was prepared for injection by suspending it in normal saline using Tween 60. The rats were then held in group cages for 30 minutes. The volume of the left hind paw was measured using a mercury displacement pleysmograph. The paw is dipped into the mercury until the mercury touches the line above the ankle. Mercury is then withdrawn until the mercury returns to its original level. The amount of mercury removed is measured in milliliters (ml). The mercury can be measured accurately to 0.01 ml. This left hind paw was then injected with 0.1 ml of a 5% w/v solution of viscous carageenan in normal saline. The injection was given between the metatarsal bones using a 27 gauge needle, and the rats then held in group cages for 3 hours. The volume of the left hind paws was measured again in the pleysmograph. The results were computed in the following manner:
The eighth rat died within 24 hours of injection.

Bacillus subtilis [3] = assay: agar well diffusion assay, B. subtilis; assay type: cell-based; details: from edge of agar well
Method: as §1

[4] = test system: carrageenan-induced rat paw edema; assay: carrageenan-induced rat paw edema test, intraperitoneal dosing; assay type: in vivo; parameters: key to mean difference in volume (MDV): post-injection minus pre-injection mean paw volume; key to group mean difference score: post-injection minus pre-injection paw volume score; details: for percent increase in paw volume / percent of control / mean difference in volume (MDV): Table 1; for group mean difference score / difference of mean scores versus vehicle control (Duncan's test) / difference of mean scores (Duncan's test): Table 3
Method: Two methods were used to assess the antiinflammatory activity of the compounds of the invention: the carrageenan-induced rat paw edema test and, the erythrocyte membrane stabilization assay.
as §2
a. A mean is taken for both the pre-injection and post-injection paw volume of each test group.
b. The mean difference in volume (MDV) for each test group is computed by subtracting the pre-injection means from the post-injection mean.
c. The percent of control is computed for each test [formula] The percent of control is used to compare the efficacy of the various drug treatments.
d. The percent increase in paw volume is calculated for each group as: [formula] The percent increase is used to compare the amount of edma observed in one experiment to the amount of edma observed in other experiments.
The data from the rat paw test were further analyzed using a one-way analysis of varience (ANOVA) and Duncan's New Multiple Range Test. The pre-injection score of each animal was subtracted from his post-injection score and an analysis of the different scores were conducted.
The procedure described above was followed. […] The vehicle control used was Tween 60, Arlacel and distilled water prepared without CBC(II).

Bacillus subtilis [5] = assay: MIC, two-fold (broth) serial dilution, B. subtilis; assay type: cell-based; details: Bacillus subtilis, read-out: MIC
Procedure, shortened: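 Qualitative: agar well diffusion. Quantitative: two-fold (broth) serial dilution → MIC. Inoculum = 1 loop-full, 1:10 dilution of 24-h broth culture in sterile water; fungi/M. smegmatis 48–72 h incubation. Controls: streptomycin sulfate (antibacterial), amphotericin B (antifungal).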

Mycobacterium smegmatis = assay: agar well diffusion assay, M. smegmatis; assay type: cell-based; details: from edge of agar well
Method: as §1

Candida albicans = assay: agar well diffusion assay, C. albicans; assay type: cell-based; details: from edge of agar well
Method: as §1

[6] = CNS screen in unanesthetized mice; assay type: in vivo; details: doses as large as 800 mg/kg
[7] = inducement of hypothermia in mice (rectal temperature); assay type: in vivo; details: 100 mg/kg i.p.
Method: CBC (100 mg/kg) was prepared in emulsion form with 3% Tween 60 and 3% Arlacel in normal saline (0.9%) in such a way as to permit a volume of […] of body weight to be injected intraperitoneally into male mice weighing between 32 and 38 grams.
The animals were divided into groups of 10, and body temperatures were recorded with a multichannel Yellow Springs Telethermometer and Thermistor probes. During the experiment, the mice were confined in plastic restraint tubes. They were allowed 45-60 min. for adaption to the restraint tubes and to rectal thermister before a pre-drug baseline temperature reading was taken. Body temperature readings were obtained at 0.5, 1.0, 2.0, 3.0 and 4.0 hrs. post-CBC administration.
The mean (±S.E.) decrease in temperature from the preinjection baseline reading for saline-, vehicle-, and CBC-treated mice were calculated and statistical analyses were conducted using the two-tailed Student's t test.

[8] = Rattus norvegicus, ip, read-out: inhibition of carrageenan-induced rat paw edema

With `CCCCCc1cc(O)c2c(c1)OC(C)(CCC=C(C)C)C=C2` (stereo not shown) [CBC (I), 2-methyl-2(4'methyl-pent-3'-enyl)-5-hydroxy-7-pentyl chromene] as the compound, how does the “agar well diffusion result in words” value [1] read?
The value was “No growth”.

What about the “width of inhibition zone” value (Escherichia coli; 24 hr) of the same compound?
Its value is 5. mm.

What about the “width of inhibition zone” value (Escherichia coli; 48 hr) of the same compound?
The value was 5. mm.

And the “width of inhibition zone” value (Saccharomyces cerevisiae; 48 hr)?
Its value is 8. mm.

And the “width of inhibition zone” value (Saccharomyces cerevisiae; 72 hr)?
The value was 8. mm.

What about the deaths [2] of the same compound?
Its deaths is “All the animals receiving 480 mg/kg died within 2 days of injection”.

What about the “width of inhibition zone” value (Bacillus subtilis [3]; 24 hr) of the same compound?
Its value is 8.0 mm.

And the “width of inhibition zone” value (Bacillus subtilis [3]; 48 hr)?
Its value is 5.0 mm.

What about the inhibition at 120 mg/kg [4, 8] of the same compound?
The inhibition at 120 mg/kg was 70%.

And the inhibition at 240 mg/kg [4, 8]?
Its inhibition at 240 mg/kg is 86%.

What about the inhibition at 480 mg/kg ([4]; Rattus norvegicus, ip, Table 5, 480 mg/kg i.p.) of the same compound?
Its inhibition at 480 mg/kg is 100%.

What about the “percent increase in paw volume” value ([4]; 120 mg/kg i.p.) of the same compound?
The value was 12.729%.

What about the percent of control ([4]; 120 mg/kg i.p.) of the same compound?
The percent of control was 30.000%.

What about the “mean difference in volume (MDV)” value ([4]; 120 mg/kg i.p., paw volume measured in ml) of the same compound?
The value was 0.139.

And the “mean difference in volume (MDV)” value ([4]; 240 mg/kg i.p.)?
Its value is 0.004.

And the “percent increase in paw volume” value ([4]; 240 mg/kg i.p.)?
Its value is 0.365%.

And the percent of control ([4]; 240 mg/kg i.p.)?
The percent of control was 0.927%.

And the “mean difference in volume (MDV)” value ([4]; 480 mg/kg i.p.)?
Its value is -0.043.

And the “percent increase in paw volume” value ([4]; 480 mg/kg i.p.)?
Its value is -3.708%.

What about the percent of control ([4]; 480 mg/kg i.p.) of the same compound?
Its percent of control is -9.189%.

And the “group mean difference score” value ([4]; 120 mg/kg)?
The value was 0.139.

What about the “difference of mean scores versus vehicle control (Duncan's test)” value ([4]; 120 mg/kg, ** p 0.01) of the same compound?
Its value is 0.324.

What about the “group mean difference score” value ([4]; 240 mg/kg) of the same compound?
Its value is 0.004.

What about the “difference of mean scores versus vehicle control (Duncan's test)” value ([4]; 240 mg/kg, ** p 0.01) of the same compound?
The value was 0.458.

What about the “group mean difference score” value ([4]; 480 mg/kg) of the same compound?
Its value is 0.043.

What about the “difference of mean scores versus vehicle control (Duncan's test)” value ([4]; 480 mg/kg, ** p 0.01) of the same compound?
Its value is 0.505.

And the “difference of mean scores (Duncan's test)” value ([4]; CBC 120 mg/kg versus CBC 240 mg/kg, * p 0.05)?
The value was 0.134.

What about the “difference of mean scores (Duncan's test)” value ([4]; CBC 120 mg/kg versus CBC 480 mg/kg, ** p 0.01) of the same compound?
Its value is 0.181.

What about the “difference of mean scores (Duncan's test)” value ([4]; CBC 120 mg/kg versus PBZ 120 mg/kg) of the same compound?
The value was 0.033.

What about the “difference of mean scores (Duncan's test)” value ([4]; CBC 240 mg/kg versus CBC 480 mg/kg) of the same compound?
The value was 0.047.

What about the “antiinflammatory effect in words” value ([4]; i.p.) of the same compound?
The value was “strong antiinflammatory effects”.

What about the “significance of difference (ANOVA, Duncan's test)” value ([4]; i.p., difference scores, listed as CBC) of the same compound?
Its value is “The 120 mg/kg dose of CBC differed significantly from the 240 and 480 mg/kg doses of CBC; also recorded: the 480 mg/kg dose of CBC differed significantly from the 120 mg/kg dosage of PBZ”.

What about the MIC (Bacillus subtilis [5]; 24 h) of the same compound?
Its MIC is 0.39 µg/mL (≈ 1.24 µM).

What about the MIC (Bacillus subtilis [5]; 48 h) of the same compound?
The MIC was 0.78 µg/mL (≈ 2.48 µM).

What about the “width of inhibition zone” value (Mycobacterium smegmatis; 24 hr) of the same compound?
Its value is 15. mm.

What about the “width of inhibition zone” value (Mycobacterium smegmatis; 48 hr) of the same compound?
Its value is 12. mm.

What about the “width of inhibition zone” value (Candida albicans; 48 hr) of the same compound?
The value was 4.0 mm.

What about the “width of inhibition zone” value (Candida albicans; 72 hr) of the same compound?
Its value is 4.0 mm.

And the “effects on the CNS screen” value [6]?
The value was “No significant effects”.

What about the “time of peak hypothermic effect” value [7] of the same compound?
The value was “within the first two hours”.

And the “mean (±S.E.) decrease in rectal temperature” value (shortened to “mean (±S.E.) decrease”) ([7]; 0.5 hrs)?
Its value is 1.86 ± 0.18 °0.

What about the “mean (±S.E.) decrease” value ([7]; 1.0 hrs) of the same compound?
Its value is 2.52 ± 0.26 °0.

What about the “mean (±S.E.) decrease” value ([7]; 2.0 hrs) of the same compound?
The value was 1.93 ± 0.21 °0.

And the “mean (±S.E.) decrease” value ([7]; 3.0 hrs)?
The value was 1.53 ± 0.21 °0.

And the “mean (±S.E.) decrease” value ([7]; 4.0 hrs)?
Its value is 1.61 ± 0 °0.

What about the “hypothermia, significance versus controls” value ([7]; listed as CBC) of the same compound?
Its value is “significantly different from saline controls at all readings; also recorded: significantly different from vehicle controls at 0.5, 1.0 and 4.0 hrs”.
